From ChEMBL document CHEMBL1208751 (Bioorg Med Chem Lett, 2010)
Converted amounts (≈) assume the structure as drawn.

Assay: Solubility of the compound at pH 6.8
Format: physicochemical
Settings: buffer

Row | SMILES | solubility [µM]
1 | CC(C)CC1n2cncc2CN(Cc2ccc(F)cc2)S1(=O)=O (configuration not stated) | < 0.5
2 | C[C@@H](c1ccc(Cl)cc1)N1Cc2cncn2C(CC(C)(C)O)S1(=O)=O (some centres not stated) | 500 (≈ 192 µg/mL)
